In brackets after ≈: the same amount, converted by molar mass.
What was measured:
P. aeruginosa ATCC27853 = test: Antimicrobial susceptibility testing: microbroth minimum inhibitory concentration (MIC) determination; assay type: cell-based; details: Pseudomonas aeruginosa, CLSI microbroth dilution in CAMHB, read after 20 hours, lowest concentration inhibiting >=80% of growth
Experimental: The in vitro antimicrobial activity of the compounds was determined through microbroth minimum inhibitory concentration (MIC) methodology performed according to the Clinical and Laboratory Standard Institute guidelines (CLSI—M07-A9 Jan. 2012. Methods for Dilution Antimicrobial Susceptibility Tests for Bacteria That Grow Aerobically; Approved Standard—Ninth Edition, Clinical and Laboratory Standards Institue, Wayne/PA, US and the CLSI—M100-S24 Jan. 2014. Performance Standards for Antimicrobial Susceptibility Testing; Approved Standard—Fourth Informational Supplement, Clinical and Laboratory Standards Institue, Wayne/PA, US).
The compound stock solution was freshly prepared at 10× the required top concentration for the MIC determination, i.e. at 1280 mg/L, by reconstitution of the dry compound in 50:50 water:DMSO.
Polystyrene non-treated 96 wells microtiter plates were used for preparing panel containing compound serial twofold diluted at two times the final testing concentration (e.g. range from 64 to 0.06 μg/ml) in cation adjusted Mueller Hinton broth medium (CAMHB).
Inoculum was prepared by the “direct colony suspension method”. Colonies of P. aeruginosa ATCC27853 or clinical isolates were suspended in saline solution and adjusted to 0.5 McFarland, diluted 100 times in CAMHB broth and 50 μl added to each well (final concentration of cells ˜5×10^(5) CFU/ml and Final volume/well of 100 μl). Microtiter plates were sealed and incubated at 35±2° C.
MICs values were read after 20 hours of incubation and recorded as the lowest concentration of the antimicrobial that inhibits more or equal to 80% of growth of the organism as detected by the unaided eye and using a microtiter plate optical density reader (OD 600 nm).
Table 1 provides the minimum inhibitory concentration (MIC) in microgram per milliliter of the compounds of present invention obtained against the P. aeruginosa ATCC27853 (Table 1).

P. aeruginosa NCTC11454 = test: Antimicrobial susceptibility testing: 50% growth inhibitory concentration (IC50) determination; assay type: cell-based; details: Pseudomonas aeruginosa, Iso-Sensitest broth, OD 600 nm every 20 minutes over 16h, growth inhibition during logarithmic growth
Outline: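 Twofold dilutions (e.g. 50–0.097 μM final) in Iso-Sensitest broth were inoculated with P. aeruginosa NCTC11454 at ~5×10^5 CFU/mL and incubated at 35±2 °C. OD600 was read every 20 min over 16 h. IC50 was derived from growth inhibition in the logarithmic phase.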

| MIC (P. aeruginosa ATCC27853) | IC50 (P. aeruginosa NCTC11454) | SMILES |
| --- | --- | --- |
| 32 µg/mL (≈ 44.5 µM) | 32 µM | Cc1[nH]c2ccccc2c1C[C@H]1C(=O)NCc2cc(Cl)ccc2Sc2ccccc2CN[C@@H](CCCN)C(=O)N[C@@H](CCCCN)C(=O)N1C [Example 15, (12S,15S,18S)-15-(4-Amino-butyl)-18-(3-amino-propyl)-6-chloro-13-methyl-12-(2-methyl-1H-indol-3-ylmethyl)-2-thia-10,13,16,19-tetraaza-tricyclo[19.4.0.0*3,8*]pentacosa-1(21),3,5,7,22,24-hexaene-1,14,17-trione] |
| 8 µg/mL (≈ 9.83 µM) | 8.8 µM | CN1C(=O)[C@H](CCCCN)NC(=O)[C@H](CCCN)NCc2ccccc2Sc2c(cc(-c3ccccc3)cc2C(F)(F)F)CNC(=O)[C@@H]1Cc1c[nH]c2ccccc12 [Example 28, (12S,15S,18S)-15-(4-Amino-butyl)-18-(3-amino-propyl)-12-(1H-indol-3-ylmethyl)-13-methyl-6-phenyl-4-trifluoromethyl-2-thia-10,13,16,19-tetraaza-tricyclo[19.4.0.0*3,8*]pentacosa-1(25),3,5,7,21,23-hexaene-11,14,17-trione] |
| 32 µg/mL (≈ 40.8 µM) | 95.7 µM | CN1C(=O)[C@H](CCCCN)NC(=O)[C@H](CCCN)NCc2ccccc2Sc2c(Cl)cc(-c3cn(C)cn3)cc2CNC(=O)[C@@H]1Cc1c[nH]c2ccccc12 [Example 37, (12S,15S,18S)-15-(4-Amino-butyl)-18-(3-amino-propyl)-4-chloro-12-(1H-indol-3-ylmethyl)-13-methyl-6-(1-methyl-1H-imidazol-4-yl)-2-thia-10,13,16,19-tetraaza-tricyclo[19.4.0.0*3,8*]pentacosa-1(25),3,5,7,21,23-hexaene-11,14,17-trione] |

— patent publication US11066443B2 (Hoffmann-La Roche Inc., priority 2017, dated 2021)
